Data as given in patent US8410106B2, “Hydrazine-substituted anthranilic acid derivatives” (Bayer Cropscience AG, priority 2010, dated 2013).
Like-named read-outs stand apart in the source and are kept apart here.

Experiments:
[1] = logP determination by HPLC on reversed-phase columns (C 18), EEC Directive 79/831 Annex V.A8; format: physicochemical
[2] = tested on: green peach aphid (Myzus persicae); assay: Myzus test (MYZUPE spray treatment); format: in vivo; details: foliar, 144 h, read-out: activity (aphids killed)
Experimental: (§1) After 6 days the activity is determined, in %.

[3] = tested on: caterpillars of the army worm (Spodoptera frugiperda); assay: Spodoptera frugiperda test (SPODFR spray treatment); format: in vivo; details: foliar, 168 h, read-out: activity (caterpillars killed)
[4] = tested on: larvae of the mustard beetle (Phaedon cochleariae); assay: Phaedon test (PHAECO spray treatment); details: in Brassica rapa, foliar, 168 h, read-out: activity (beetle larvae killed)
[5] = tested on: greenhouse red spidermite (Tetranychus urticae); assay: Tetranychus test, OP-resistant (TETRUR spray treatment); format: in vivo; details: after 6 days, bean leaf discs
Experimental: as §1

[6] = HPLC, reversed-phase C 18, table value without method mark, read-out: logP
[7] = application rate 100 g/ha, after 6 days, Chinese cabbage leaf discs, spray
[8] = application rate 100 g/ha, after 7 days, maize leaf discs, spray

## COC(=O)N(C)NC(=O)c1cc(Cl)cc(Cl)c1NC(=O)c1cc(Cn2nc(C(F)F)cc2C(F)F)nn1-c1ncccc1Cl [Example 42]
[1]
  chromatographic logP: 2.9
[2]; in Brassica rapa
  pest or weed control at 100 g/ha: 100%
[3]; in Zea mays
  pest or weed control at 100 g/ha: 100%
[4]
  pest or weed control at 100 g/ha: 100%

## COC(=O)N(C)NC(=O)c1cc(C#N)cc(C)c1NC(=O)c1cc(Cn2nnc(C(F)F)n2)nn1-c1ncccc1Cl [Example 45]
[1]
  chromatographic logP: 2.15
[2]; in Brassica rapa
  pest or weed control at 100 g/ha: 100%
[3]; in Zea mays
  pest or weed control at 100 g/ha: 100%
[4]
  pest or weed control at 100 g/ha: 100%

## COC(=O)N(C)NC(=O)c1cc(Cl)cc(C)c1NC(=O)c1cc(Cn2nnnc2C(F)F)nn1-c1ncccc1Cl [Example 46]
[1]
  chromatographic logP: 2.25
[2]; in Brassica rapa
  pest or weed control at 100 g/ha: 100%
[3]; in Zea mays
  pest or weed control at 100 g/ha: 100%
[4]
  pest or weed control at 100 g/ha: 100%

## COC(=O)N(C)NC(=O)c1cc(C#N)cc(C)c1NC(=O)c1cc(Cn2cc(C(F)(F)F)nn2)nn1-c1ncccc1Cl [Example 47]
[1]
  chromatographic logP: 2.3
[2]; in Brassica rapa
  pest or weed control at 100 g/ha: 90%
[3]; in Zea mays
  pest or weed control at 100 g/ha: 100%
[4]
  pest or weed control at 100 g/ha: 100%

## COC(=O)N(C)NC(=O)c1cc(Cl)cc(C)c1NC(=O)c1cc(Cn2cnc(C(F)(F)F)c2C(F)(F)F)nn1-c1ncccc1Cl [Example 48]
[1]; [6]
  chromatographic logP: 3.08
[2]; [7]
  pest or weed control at 100 g/ha: 100%
[3]; [8]
  pest or weed control at 100 g/ha: 100%
[4]
  pest or weed control at 100 g/ha: 100%

## COC(=O)N(C)NC(=O)c1cc(I)cc(C)c1NC(=O)c1cc(Cn2cnc(C(F)(F)F)c2C(F)(F)F)nn1-c1ncccc1Cl [Example 49]
[1]; [6]
  chromatographic logP: 3.26
[2]; [7]
  pest or weed control at 100 g/ha: 100%
[3]; [8]
  pest or weed control at 100 g/ha: 100%
[4]
  pest or weed control at 100 g/ha: 100%

## COC(=O)N(C)NC(=O)c1cc(Cl)cc(C)c1NC(=O)c1cc(Cn2nc(C(F)F)cc2C(F)F)nn1-c1ncccc1Cl [Example 50]
[1]
  chromatographic logP: 2.91
[2]; in Brassica rapa
  pest or weed control at 100 g/ha: 100%
[3]; in Zea mays
  pest or weed control at 100 g/ha: 100%
[4]
  pest or weed control at 100 g/ha: 100%

## COC(=O)N(C)NC(=O)c1cc(I)cc(C)c1NC(=O)c1cc(Cn2nnc(C(F)(F)F)n2)nn1-c1ncccc1Cl [Example 51]
[1]
  chromatographic logP: 3.15
[2]; in Brassica rapa
  pest or weed control at 100 g/ha: 100%
[3]; in Zea mays
  pest or weed control at 100 g/ha: 100%
[4]
  pest or weed control at 100 g/ha: 100%

## COC(=O)N(C)NC(=O)c1cc(Cl)cc(C)c1NC(=O)c1cc(Cn2nnc(C(F)(F)C(F)(F)F)n2)nn1-c1ncccc1Cl [Example 52]
[1]
  chromatographic logP: 3.32
[2]; in Brassica rapa
  pest or weed control at 100 g/ha: 100%
[3]; in Zea mays
  pest or weed control at 100 g/ha: 100%
[4]
  pest or weed control at 100 g/ha: 100%

## COC(=O)N(C)NC(=O)c1cc(Br)cc(C)c1NC(=O)c1cc(Cn2nnc(C(F)(F)C(F)(F)F)n2)nn1-c1ncccc1Cl [Example 53]
[1]
  chromatographic logP: 3.4
[2]; in Brassica rapa
  pest or weed control at 100 g/ha: 100%
[3]; in Zea mays
  pest or weed control at 100 g/ha: 100%
[4]
  pest or weed control at 100 g/ha: 100%

## COC(=O)NNC(=O)c1cc(Cl)cc(C)c1NC(=O)c1cc(Cn2nnc(C(F)(F)C(F)(F)C(F)(F)F)n2)nn1-c1ncccc1Cl [Example 54]
[1]; [6]
  chromatographic logP: 3.41
[2]; in Brassica rapa
  pest or weed control at 100 g/ha: 90%
[3]; in Zea mays
  pest or weed control at 100 g/ha: 100%
[4]
  pest or weed control at 100 g/ha: 100%

## COC(=O)N(C)NC(=O)c1cc(Cl)cc(C)c1NC(=O)c1cc(Cn2nnc(C(F)(F)F)n2)nn1-c1ncccc1C#N [Example 59]
[1]; [6]
  chromatographic logP: 2.73
[3]; [8]
  pest or weed control at 100 g/ha: 100%
[5]; application rate 100 g/ha
  activity (mites killed): 100%
[4]
  pest or weed control at 100 g/ha: 100%

## COC(=O)N(C)NC(=O)c1cc(C(F)(F)F)cc(C)c1NC(=O)c1cc(Cn2nnc(C(F)(F)F)n2)nn1-c1ncccc1Cl [Example 60]
[1]
  chromatographic logP: 3.17
[2]; in Brassica rapa
  pest or weed control at 100 g/ha: 100%
[3]; in Zea mays
  pest or weed control at 100 g/ha: 100%
[4]
  pest or weed control at 100 g/ha: 100%

## COC(=O)N(C)NC(=O)c1cc(C(F)(F)F)cc(C)c1NC(=O)c1cc(Cn2nnc(C(F)(F)C(F)(F)F)n2)nn1-c1ncccc1Cl [Example 61]
[1]; [6]
  chromatographic logP: 3.55
[2]; [7]
  pest or weed control at 100 g/ha: 90%
[3]; [8]
  pest or weed control at 100 g/ha: 100%
[4]
  pest or weed control at 100 g/ha: 100%

## COC(=O)N(C)NC(=O)c1cc(C#N)cc(C)c1NC(=O)c1cc(Cn2nc(C(F)F)cc2C(F)F)nn1-c1ncccc1Cl [Example 63]
[1]
  chromatographic logP: 2.59
[2]; in Brassica rapa
  pest or weed control at 100 g/ha: 100%
[3]; in Zea mays
  pest or weed control at 100 g/ha: 100%
[4]
  pest or weed control at 100 g/ha: 100%

## COC(=O)N(C)NC(=O)c1cc(Cl)cc(Cl)c1NC(=O)c1cc(Cn2nc(C(F)(F)F)cc2C)nn1-c1ncccc1Cl [Example 66]
[1]
  chromatographic logP: 3.1
[2]; in Brassica rapa
  pest or weed control at 100 g/ha: 100%
[3]; in Zea mays
  pest or weed control at 100 g/ha: 100%
[4]
  pest or weed control at 100 g/ha: 100%

## COC(=O)N(C)NC(=O)c1cc(Cl)cc(Cl)c1NC(=O)c1cc(Cn2nc(OC)n(C)c2=O)nn1-c1ncccc1Cl [Example 67]
[1]
  chromatographic logP: 1.9
[5]; application rate 500 g/ha
  activity (mites killed): 100%

## COC(=O)N(C)NC(=O)c1cc(Cl)cc(C)c1NC(=O)c1cc(Cn2nc(C(F)(F)C(F)(F)C(F)(F)F)cc2C)nn1-c1ncccc1Cl [Example 68]
[1]; [6]
  chromatographic logP: 3.82
[2]; in Brassica rapa
  pest or weed control at 100 g/ha: 100%
[3]; in Zea mays
  pest or weed control at 100 g/ha: 100%
[4]
  pest or weed control at 100 g/ha: 100%

## COC(=O)N(C)NC(=O)c1cc(I)cc(C)c1NC(=O)c1cc(Cn2cnc(C(F)(F)F)n2)nn1-c1ncccc1Cl [Example 69]
[1]
  chromatographic logP: 2.71
[2]; in Brassica rapa
  pest or weed control at 100 g/ha: 100%
[3]; in Zea mays
  pest or weed control at 100 g/ha: 100%
[4]
  pest or weed control at 100 g/ha: 100%

## COC(=O)N(C)NC(=O)c1cc(I)cc(C)c1NC(=O)c1cc(Cn2nnnc2C(F)(F)F)nn1-c1ncccc1Cl [Example 72]
[1]
  chromatographic logP: 2.78
[2]; in Brassica rapa
  pest or weed control at 100 g/ha: 100%
[3]; in Zea mays
  pest or weed control at 100 g/ha: 100%
[4]
  pest or weed control at 100 g/ha: 100%

## COC(=O)N(C)NC(=O)c1cc(C#N)cc(C)c1NC(=O)c1cc(Cn2nnc(C(F)(F)C(F)(F)F)n2)nn1-c1ncccc1Cl [Example 73]
[1]; [6]
  chromatographic logP: 2.97
[2]; [7]
  pest or weed control at 100 g/ha: 100%
[3]; [8]
  pest or weed control at 100 g/ha: 100%
[4]
  pest or weed control at 100 g/ha: 100%

## COC(=O)N(C)NC(=O)c1cc(I)cc(C)c1NC(=O)c1cc(Cn2nnc(C(F)F)n2)nn1-c1ncccc1Cl [Example 74]
[1]
  chromatographic logP: 2.64
[2]; in Brassica rapa
  pest or weed control at 100 g/ha: 100%
[3]; in Zea mays
  pest or weed control at 100 g/ha: 100%
[4]
  pest or weed control at 100 g/ha: 100%

## COC(=O)N(C)NC(=O)c1cc(F)cc(C)c1NC(=O)c1cc(Cn2nnc(C(F)F)n2)nn1-c1ncccc1Cl [Example 75]
[1]
  chromatographic logP: 2.19
[2]; in Brassica rapa
  pest or weed control at 100 g/ha: 100%
[3]; in Zea mays
  pest or weed control at 100 g/ha: 100%
[4]
  pest or weed control at 100 g/ha: 100%

## COC(=O)N(C)N(C)C(=O)c1cc(C#N)cc(C)c1NC(=O)c1cc(Cn2nnc(C(F)(C(F)(F)F)C(F)(F)F)n2)nn1-c1ncccc1Cl [Example 79]
[1]; [6]
  chromatographic logP: 3.66
[2]; [7]
  pest or weed control at 100 g/ha: 100%
[3]; [8]
  pest or weed control at 100 g/ha: 100%
[4]
  pest or weed control at 100 g/ha: 100%

## COC(=O)N(C)NC(=O)c1cc(I)cc(C)c1NC(=O)c1cc(Cn2nnc(C(F)(F)C(F)(F)C(F)(F)F)n2)nn1-c1ncccc1Cl [Example 81]
[1]; [6]
  chromatographic logP: 3.85
[2]; in Brassica rapa
  pest or weed control at 100 g/ha: 80%
[3]; in Zea mays
  pest or weed control at 100 g/ha: 100%
[4]
  pest or weed control at 100 g/ha: 100%

## COC(=O)N(C)N(C)C(=O)c1cc(C#N)cc(C)c1NC(=O)c1cc(Cn2nnc(C(F)(F)C(F)(F)C(F)(F)F)n2)nn1-c1ncccc1Cl [Example 82]
[1]; [6]
  chromatographic logP: 3.67
[2]; in Brassica rapa
  pest or weed control at 100 g/ha: 100%
[3]; in Zea mays
  pest or weed control at 100 g/ha: 100%
[4]
  pest or weed control at 100 g/ha: 100%

## COC(=O)N(C)NC(=O)c1cc(Cl)cc(C)c1NC(=O)c1cc(Cn2nnc(C(F)(F)F)n2)nn1-c1ccccc1Cl [Example 85]
[1]; [6]
  chromatographic logP: 3.34
[2]; [7]
  pest or weed control at 100 g/ha: 100%
[3]; [8]
  pest or weed control at 100 g/ha: 100%
[4]
  pest or weed control at 100 g/ha: 100%
